Earlier results in US20230346830A1 (priority 2020, published 2023).
Like-named read-outs stand apart in the source and are kept apart here.

Columns and labels:
[1] = tested on: SARS CoV
[2] = 160 ppm for 30 min every 3.5 hours, intermittent
[3] = tested on: influenza WSN/33
[4] = tested on: severe acute respiratory syndrome SARS; conditions: in vivo
[5] = tested on: broad range of microorganisms; conditions: no less than 160 ppm, five hours of continuous exposure

Row | SMILES | replication cycle of SARS CoV [1] | methemoglobinemia [2] | survival of infected mice ([3]; administered prophylactically or post-influenza infection, 80 ppm continuous or 160 ppm intermittent) | lung viral load between experimental groups ([3]; influenza-infected mice) | effect on the virus ([3]; influenza-infected mice, continuously at 80 ppm or intermittently at 160 ppm for 30 minutes followed by 3½ hours of breathing air) | arterial oxygen saturation [4] | lung infiltrates [4] | antimicrobial response in vitro [5] | inhibition of the virus replication cycle compared with cytokine treatment ([1]; 50 μM SNAP) | reduction in the yield of progeny virus ([1]; 100 μM SNAP) | viral RNA production ([1]; 400 μM SNAP) | inhibitory effect on yield of progeny virus ([1]; 400 μM SNAP, compared with 100 μM) | replication cycle of SARS CoV ([1]; concentration-dependent)
1 | [N]=O [NO, Nitric oxide] | specifically inhibits | could prevent methemoglobinemia | failed to improve survival | No difference | no effect | improved | decreased the spread and intensity | non-specific antimicrobial response | – | – | – | – | –
2 | CC(=O)N[C@H](C(=O)O)C(C)(C)SN=O (racemic) [SNAP, S-nitroso-N-acetylpenicillamine] | – | – | – | – | – | – | – | – | same level of inhibition | 2 log | significantly inhibited | even more pronounced | significantly inhibited
